Laboratory results published in patent US20230285570A1, “THERAPEUTICALLY USEFUL CURE-PRO MOLECULES FOR E3 LIGASE MEDIATED DEGRADATION OF PROTEINS, AND METHODS OF MAKING AND USING THEM” (CORNELL UNIVERSITY, priority 2020, published 2023).
“Also recorded” adds a separate entry of the source.

Key:
SLC19A1 = experiment: RT-PCR of c-MYC downstream target gene SLC19A1 in HeLa cells; assay type: cell-based, Human; conditions: combined with MDM2 ligand 8312, HeLa, 10 μM each, 24 h
Description: The suppression of the expression of the downstream c-MYC target, SLC19A1, was measured by RT-PCR using Power SYBR® Green Cells-to-Ct™ Kit (Life Technologies). Adherent cells were plated on 96 well plates at 5,000 cells per well were treated for 24 h with monomer compounds and compounds capable of reversible interactions (1 nM-100 μM). Cells were subsequently washed in ice-cold PBS processed according to the manufacturer's instructions. Quantitative real-time PCR was performed using a ViiA™ 7 Real-time PCR System (Applied Biosystems, Foster City, Calif., USA). GAPDH and ACTB served as internal controls.
HeLa cells (1×10^4) were treated for 24 hours in 96 well plates with the compounds solubilized in DMSO. Compounds were added at 10 μM each and RNA expression measured by the Cells-to Ct method described above (Thermofisher).

BRD4 [1] = target: T1, BRD4 (Homo sapiens, UniProt O60885); experiment: Summary of BRD4 degradation by CURE-PRO pairs, estimated from Western Blot or WES; assay type: cell-based; design: endogenous in cells
Procedure, shortened: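 Degradation read-out from immunoblot with ECL, or WES capillary electrophoresis with HRP detection, of RIPA lysates. Cells (Namalwa, Ramos, HeLa, MCF7, HT29 or HCT116) were exposed to DMSO-solubilized compounds for 24 h; a check mark marks 30% to 70% or higher degradation.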

BRD2 = target: T2, BRD2 (Homo sapiens, UniProt P25440); experiment: BRD protein family degradation in HCT116 cells, Western blot: BRD2; assay type: cell-based; conditions: 1:1 with MDM2 ligands 8310 and 8312 (each), HCT116, 24 h, 100 nM-10 μM
T2 construct: endogenous in cells; host or cells: HCT116
T2 sequence (P25440 whole entry): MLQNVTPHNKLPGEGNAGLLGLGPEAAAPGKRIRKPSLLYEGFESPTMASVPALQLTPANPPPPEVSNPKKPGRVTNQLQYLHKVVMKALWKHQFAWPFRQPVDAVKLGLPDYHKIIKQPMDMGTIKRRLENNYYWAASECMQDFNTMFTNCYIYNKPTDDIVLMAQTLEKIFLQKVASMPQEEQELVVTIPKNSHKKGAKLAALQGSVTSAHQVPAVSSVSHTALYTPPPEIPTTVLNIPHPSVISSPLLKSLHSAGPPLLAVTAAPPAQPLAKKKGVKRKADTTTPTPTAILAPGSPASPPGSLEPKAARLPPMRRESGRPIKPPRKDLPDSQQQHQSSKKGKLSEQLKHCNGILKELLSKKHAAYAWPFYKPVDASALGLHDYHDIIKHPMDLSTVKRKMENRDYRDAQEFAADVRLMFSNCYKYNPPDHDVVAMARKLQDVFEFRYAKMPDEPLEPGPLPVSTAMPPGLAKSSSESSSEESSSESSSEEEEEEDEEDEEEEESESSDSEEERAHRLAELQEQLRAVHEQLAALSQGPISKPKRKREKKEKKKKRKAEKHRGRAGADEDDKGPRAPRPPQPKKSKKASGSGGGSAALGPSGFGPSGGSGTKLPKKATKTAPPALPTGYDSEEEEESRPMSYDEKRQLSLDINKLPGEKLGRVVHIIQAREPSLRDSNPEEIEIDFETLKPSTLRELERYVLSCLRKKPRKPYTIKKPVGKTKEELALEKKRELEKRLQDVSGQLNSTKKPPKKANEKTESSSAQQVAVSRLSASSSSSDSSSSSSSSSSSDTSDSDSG
Description: (§1) Namalwa, Ramosm HeLa, MCF7, or HT29 HCT116 cells (2.5-3×10^6) were treated for 24 hours with the indicated compounds solubilized in DMSO. The cells were washed in ice-cold PBS and were then lysed in RIPA lysis buffer (150 mM NaCl, 5 mM EDTA, 1% NP-40, 0.5% sodium deoxycholate, 0.1% SDS, 50 mM Tris, pH 8.0.) with Roche protease inhibitor complete cocktail and phosphatase inhibitors (10 mM sodium fluoride, 10 mM sodium pyrophosphate, 1 mM sodium orthovanadate and 20 mM β-glycerophosphate). The total protein concentrations were determined by Bradford Protein Assay (Pierce) and 10-20 μg of protein was loaded onto 4-15% Tris-Glycine gradient gels (Biorad). After standard gel electrophoresis, the separated proteins were transferred to PVDF membrane by wet transfer. The immunoblots were then blocked for 1 hour in 5% skim milk in TBST or 5% BSA in TBST, according to manufacturer's instructions, before an overnight incubation at 4° C. with indicated antibodies and membranes. […] Signal was detected with ECL Western Blotting Substrate (Pierce) and X-ray film processed with a Konica SRX-101 X-ray film processor or captured by Bio-Rad's Chemidoc Imaging system. […]

MV-4-11 cells = experiment: CellTiter-Glo cell viability, MV-4-11 cells; assay type: cell-based; conditions: co-dosed 1:1 with CRBN ligand 8049, MV-4-11, 24 h, 1 nM-100 μM each
Procedure, shortened: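 Viability by CellTiter-Glo luminescence. One protocol: 5×10^4 MV-4-11 cells, 24 h, compounds at 1 nM-100 μM each; other: 1×10^4 cells, 72 h, 10 nM-100 μM each. BRD ligands combined 1:1 with CRBN ligands; dose-response curves fitted.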

BRD4 [2] = target: T1, BRD4; experiment: BRD protein family degradation in HCT116 cells, Western blot: BRD4; assay type: cell-based; design: endogenous in cells
Description: Namalwa, Ramosm HeLa, MCF7, or HT29 HCT116 cells (2.5-3×10^6) were treated for 24 hours with the indicated compounds solubilized in DMSO. The cells were washed in ice-cold PBS and were then lysed in RIPA lysis buffer (150 mM NaCl, 5 mM EDTA, 1% NP-40, 0.5% sodium deoxycholate, 0.1% SDS, 50 mM Tris, pH 8.0.) with Roche protease inhibitor complete cocktail and phosphatase inhibitors (10 mM sodium fluoride, 10 mM sodium pyrophosphate, 1 mM sodium orthovanadate and 20 mM β-glycerophosphate). The total protein concentrations were determined by Bradford Protein Assay (Pierce) and 10-20 μg of protein was loaded onto 4-15% Tris-Glycine gradient gels (Biorad). After standard gel electrophoresis, the separated proteins were transferred to PVDF membrane by wet transfer. The immunoblots were then blocked for 1 hour in 5% skim milk in TBST or 5% BSA in TBST, according to manufacturer's instructions, before an overnight incubation at 4° C. with indicated antibodies and membranes. Membranes were then incubated with the appropriate horseradish peroxidase-conjugated secondary antibodies (1:5,000 dilution) for 1 h at room temperature and the bands were visualized using the Clarity Max Western ECL Substrate (Biorad) and the ChemiDoc Imaging System (Biorad). Signal was detected with ECL Western Blotting Substrate (Pierce) and X-ray film processed with a Konica SRX-101 X-ray film processor or captured by Bio-Rad's Chemidoc Imaging system.
(§2) HCT116 cells (3×10^6) were treated for 24 hours with the compounds solubilized in DMSO. Compounds were added at 100 nM-10 μM each. Standardized protein samples were electrophoresed and imaged as described in the Immunoblotting section above. FIGS. 64 and 65 depict the concentration-dependence of CURE-PRO-mediated BRD2 and BRD3 degradation using MDM2 ligands.

BRD3 = target: T3, BRD3 (Homo sapiens, UniProt Q15059); experiment: BRD protein family degradation in HCT116 cells, Western blot: BRD3; assay type: cell-based; conditions: 1:1 with MDM2 ligands 8310 and 8312 (each), HCT116, 24 h, 100 nM-10 μM
T3 construct: endogenous in cells; host or cells: HCT116
T3 sequence (Q15059 whole entry): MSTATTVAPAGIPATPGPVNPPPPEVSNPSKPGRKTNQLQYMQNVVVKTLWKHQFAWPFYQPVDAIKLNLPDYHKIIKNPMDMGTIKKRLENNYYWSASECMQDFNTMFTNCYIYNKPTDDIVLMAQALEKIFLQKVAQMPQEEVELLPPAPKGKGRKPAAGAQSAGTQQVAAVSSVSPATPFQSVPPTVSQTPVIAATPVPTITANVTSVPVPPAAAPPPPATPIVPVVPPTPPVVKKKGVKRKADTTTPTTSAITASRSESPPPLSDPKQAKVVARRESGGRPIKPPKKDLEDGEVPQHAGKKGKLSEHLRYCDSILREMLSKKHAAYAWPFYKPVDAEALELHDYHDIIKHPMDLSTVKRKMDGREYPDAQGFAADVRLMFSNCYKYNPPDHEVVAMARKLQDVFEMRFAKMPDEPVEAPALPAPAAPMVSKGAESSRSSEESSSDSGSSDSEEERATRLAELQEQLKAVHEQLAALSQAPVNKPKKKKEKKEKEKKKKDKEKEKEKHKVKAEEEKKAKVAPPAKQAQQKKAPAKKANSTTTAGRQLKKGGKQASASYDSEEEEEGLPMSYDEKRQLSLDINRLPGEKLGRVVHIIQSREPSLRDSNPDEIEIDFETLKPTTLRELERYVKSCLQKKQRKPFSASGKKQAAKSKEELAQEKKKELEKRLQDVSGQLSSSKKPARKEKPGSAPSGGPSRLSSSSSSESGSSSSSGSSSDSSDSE
Description: as §1

BRD4 [3] = target: T1, BRD4; experiment: CURE-PRO-mediated BRD4 degradation in HCT116 cells, WES (ProteinSimple); assay type: cell-based; design: endogenous in cells; conditions: for BRD4 degradation: 10 μM
Description: All cell lines were purchased from ATCC or DSMZ and grown at 37° C. with 5% CO2. Human HeLa cells were cultured in complete growth medium (Dulbecco's modified Eagle's medium (DMEM) supplemented with 10% FBS); MCF7 cells were cultured in complete growth medium (Dulbecco's modified Eagle's medium (DMEM) supplemented with 10% FBS and 0.01 mg/ml human recombinant insulin (Sigma Aldrich); Namalwa and Ramos cells were cultured in complete growth medium (RPMI 1640 medium supplemented with 10% FBS); HCT116 and HT29 cells were cultured in complete growth medium (McCoy's 5a Medium supplemented with 10% FBS). For cellular degradation of BRD4 studies cells were seeded in a 12-well plate at 70-80% confluency, allowed to attach overnight, and incubated with the indicated compounds for the indicated time. When indicated, a 15-minute pretreatment with 10 μM pomalidomide, 10 μM VHL298, 10 μM Nutlin3a, 1 μM MG-132 or 1 μM Carfilzomib was performed before the addition of CURE-PROs. For washout studies, after CURE-PRO treatment, media was aspirated and incubated with complete medium for the indicated time before lysis.
WES Simple analysis was performed on WES system (ProteinSimple-Biotechne) according to the manufacturer's instructions. Total protein concentrations of cell lysates were determined by the Pierce BCA kit (Thermo Fisher). 3 μL of 0.3 μg/μL of the protein lysate was loaded onto a 12- to 230-kDa WES assay plate (ProteinSimple) where 300 nL sample was withdrawn through a capillary, subjected to electrophoretic separation of proteins by size, and followed by the simultaneous, HRP-based detection of proteins using the Anti-Rabbit Detection Module (Proteinsimple: #DM-001). The electropherograms were checked then the automatic peak detection was manually corrected if it was required.
as §2, with “1 μM-10” for “100 nM-10”, “WES ProteinSimple” for “Immunoblotting”, “59, 60,” for “64”, “61” for “65”, “BRD4” for “BRD2 and BRD3”
as §2, with “1 μM-10” for “100 nM-10”, “WES ProteinSimple” for “Immunoblotting”, “62” for “64”, “63” for “65”, “BRD4” for “BRD2 and BRD3”
HCT116 cells (3×10^6) were treated for 24 hours with the compounds solubilized in DMSO. CURE-PRO monomers were added at 10 μM each and the proteasomal inhibitors at 1 μM. Standardized protein samples were electrophoresed and imaged as described in the WES ProteinSimple section above. FIG. 68 depicts the dependence of the proteasome for CURE-PRO-mediated BRD4 degradation.

## CCNC(=O)C[C@@H]1N=C(c2ccc(Cl)cc2)c2cc(OCCNC(=O)c3cccc(O)c3O)ccc2-n2c(C)nnc21 [BRD-N25]
SLC19A1
  suppression of SLC19A1 expression: suppressed more substantially
BRD4 [1]; Table 5, aromatic 1,2-diol BRD4 ligand + 8310
  Degradation of BRD4, combination with MDM2 ligand 8310: √ (A black check mark indicates efficacy of 30% to 70% or higher protein degradation)
BRD4 [1]; Table 5, aromatic 1,2-diol BRD4 ligand + 8312
  Degradation of BRD4, combination with MDM2 ligand 8312: √ (A black check mark indicates efficacy of 30% to 70% or higher protein degradation)
BRD2
  BRD2 degradation: BRD2 to a lesser extent; also recorded: Degradation is evident
MV-4-11 cells
  loss of cellular viability (toxicity): concentration-dependent loss in cellular viability; also recorded: increased toxicity
BRD4 [2]; 1:1 with MDM2 ligands 8310 and 8312 (each), HCT116, 24 h, 100 nM-10 μM
  BRD4 degradation: caused BRD4 degradation; also recorded: Degradation is evident
BRD4 [2]; with MDM2 ligands 8310 and 8312, HCT116, Western blot
  selectivity of degradation among BRD2, BRD3 and BRD4: some selectivity for BRD3 and BRD4 over BRD2 for 8310 is noted
BRD3
  BRD3 degradation: degradation of BRD3; also recorded: Degradation is evident
BRD4 [3]; 1:1 with 8310 at 10 μM, pre-incubation with MG-132 and Carfilzomib 1 μM, HCT116
  BRD4 degradation with proteasome inhibitors: inhibited by the pre-incubation with MG-132 and Carfilzomib; also recorded: inhibited with the proteasome inhibitors, MG-132 and Carfilzomib
BRD4 [3]; 1:1 with MDM2 ligand 8310, HCT116, 24 h
  BRD4 degradation: caused BRD4 degradation; also recorded: marked BRD4 degradation
BRD4 [3]; 1:1 with MDM2 ligand 8312, HCT116, 24 h
  BRD4 degradation: caused BRD4 degradation
